From patent US11478467B2 (priority 2017, dated 2022)

Legend:
CYP2D6 [1] = target: T1, CYP2D6 (Homo sapiens (Human), UniProt P10635); details: microsomes
Protocol: Dextromethorphan O-demethylase activity is determined in human liver microsomes. […] The incubation mixtures contain pooled human liver microsomes, dextromethorphan, and a NADPH-generating system. After incubation and centrifugation, the supernatant is diluted up to 100-fold with acetonitrile and then injected into the LC-MS/MS system. All incubations are performed in triplicate, and mean values are used for analysis. The IC50 values (concentration causing a half-maximal inhibition of control specific binding) and Hill coefficients (nH) are determined using methods such as non-linear regression analysis of the competition curves generated with mean replicate values using Hill equation curve fitting.

[2] = rat, in vivo, cited from earlier work
[3] = system: hyperactivity in rats after olfactory bulbectomy; assay: Motor hyperactivity induced by olfactory bulbectomy in rats; assay type: in vivo, rat
Protocol: In a dedicated set of studies, adult male Sprague-Dawley rats (Charles River, Germany) were subjected to bilateral olfactory bulbectomy performed under ketamine/xylasine anesthesia. The animals were allowed to recover for 14 days following surgery while being handled daily to eliminate any aggressiveness that would otherwise arise. Sham-operated animals were treated in the same way but the olfactory bulbs were left intact. Drugs administration and locomotor activity testing were performed 4 times for each rat with 72 hours break between consecutive test sessions. Prior to each test session, animals were first treated with dextromethorphan (0, 15, 30 or 60 mg/kg. per os) followed 15 min later by sarpogrelate (1, 3 and 10 mg/kg, intraperitoneal) and another 15 min later were placed into Opto-Varimex cages for locomotor activity recording over 30 min. Hyperactivity in rats after olfactory bulbectomy is observed mostly during the early portion of the test sessions. […] Post hoc pairwise comparisons (Sidak's multiple comparisons test) confirmed that significant differences between bulbectomized and sham-operated were observed only in rats that were pretreated prior to the test with vehicle instead of sarpogrelate.

DOI-induced head shakes = DOI-induced head shakes in rats; assay type: in vivo, rat; details: 0.3, 1 and 3 mg/kg 30 min prior to DOI 3 mg/kg; Sprague-Dawley rats
[4] = system: PCP-induced hyperactivity; assay: Phencyclidine-induced hyperactivity in rats (sarpogrelate and dextromethorphan); assay type: in vivo, rat
5-HT2A receptors [5] = target: T2, 5-HT2A receptors (Homo sapiens (Human), UniProt P28223); details: compared with ritanserin; cited from earlier work
T2 sequence (P28223 whole entry): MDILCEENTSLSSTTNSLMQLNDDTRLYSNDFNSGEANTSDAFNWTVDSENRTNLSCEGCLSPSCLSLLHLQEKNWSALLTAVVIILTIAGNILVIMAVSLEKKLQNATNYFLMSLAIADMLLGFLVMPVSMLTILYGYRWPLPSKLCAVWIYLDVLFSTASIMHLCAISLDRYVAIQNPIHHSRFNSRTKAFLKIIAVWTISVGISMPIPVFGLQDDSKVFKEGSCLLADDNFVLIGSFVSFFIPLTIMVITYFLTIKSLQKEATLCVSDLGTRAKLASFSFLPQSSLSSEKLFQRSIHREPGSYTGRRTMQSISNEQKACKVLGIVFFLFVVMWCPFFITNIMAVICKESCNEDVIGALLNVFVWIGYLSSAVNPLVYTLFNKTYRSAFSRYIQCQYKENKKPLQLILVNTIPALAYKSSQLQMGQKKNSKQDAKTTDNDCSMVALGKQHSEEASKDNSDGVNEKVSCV

CYP2D6 [6] = target: T1, CYP2D6; assay: Dextromethorphan O-demethylase activity in human liver microsomes; assay type: biochemical
Protocol: Dextromethorphan O-demethylase activity was determined in human liver microsomes. […] The incubation mixtures contained pooled human liver microsomes (final concentrations: 0.25 mg/ml), dextromethorphan, and a NADPH-generating system (1.3 mM NADP+, 3.3 mM glucose 6-phosphate, 3.3 mM MgCl2, and 0.4 U/ml glucose-6-phosphate dehydrogenase). […] All incubations were performed in triplicate, and mean values were used for analysis. […] Both sarpogrelate enantiomers inhibited CYP2D6-mediated dextromethorphan O-demethylation (Table 4).

CYP2D6 [7] = target: T1, CYP2D6; details: cited from earlier work
5-HT2A receptors [8] = target: T2, 5-HT2A receptors; assay: 5-HT2A receptor antagonist radioligand binding ([3H]ketanserin)
Protocol: HEK-293 cells expressing human recombinant 5HT2A receptor were used in the antagonist radioligand binding studies. […] The inhibition constants (Ki) were calculated using the Cheng Prusoff equation. Both sarpogrelate enantiomers were potent inhibitors of [3H]ketanserin binding (Table 1). M1 enantiomers also potently bind to 5HT2A receptors with the Ki values that are approximately one order of magnitude higher than those of sarpogrelate enantiomers (Table 1). There are no meaningful differences between enantiomers in terms of 5-HT2A receptor binding for sarpogrelate or its main metabolite.
5HT2a ASSAY: Evaluation of the affinity of compounds for the human 5-HT2A receptor in transfected HEK-293 cells determined in a radioligand binding assay. Cell membrane homogenates (30-50 μg protein) were incubated 15 min at 37° C. with 0.5 nM [3H]ketanserin in the absence or presence of the test compound in a buffer containing 50 mM Tris-HCl (pH 7.4). Nonspecific binding was determined in the presence of 1 μM ketanserin. Following incubation, the samples were filtered rapidly under vacuum through glass fiber filters presoaked with 0.3% PEI and rinsed several times with ice-cold 50 mM Tris-HCl using a 96-sample cell harvester. The filters were dried then counted for radioactivity in a scintillation counter using a scintillation cocktail (WO2005013952A1, EP1500391A1[ab1], incorporated in its entirety by reference).

[9] = Blood glucose levels and oral glucose tolerance in rats; assay type: in vivo, rat; details: dextromethorphan administered in combination with sarpogrelate
Protocol: Test substances were administered to male Wistar (Han) rats (180-280 g at the beginning of the experiments; Janvier Labs) housed in groups under free access to food and water. After overnight food deprivation, the tip of the tail was cut, each rat was weighed, housed individually and left without stress in a quiet room. Approximately 1 hour later, baseline blood glucose was measured from a drop of blood collected from the tail tip, using a commercially available glucose-meter (OneTouch®, Lifescan) and then rats received intraperitoneal injection of sarpogrelate and/or dextromethorphan and 30 min later blood glucose was measured again and rats immediately challenged with glucose at 2 g/kg by oral gavage. Then, blood glucose was measured at 6 time-points until 180 minutes post-glucose challenge.

[10] = Pharmacokinetic study of sarpogrelate hydrochloride i.v. in rats; assay type: in vivo, rat; details: rat, in vivo; 2 mg/kg intravenous bolus, male Wistar rats, plasma; read-out: Apparent terminal elimination half-life (converted)
Protocol: Pharmacokinetic study was performed in male Wistar rats equipped with the jugular vein cannulas. Sarpogrelate hydrochloride was formulated in Pharmasolv: PBS buffer (5:95) mixture and administered at the dose of 2 mg/kg intravenously. Blood samples were collected from the jugular vein using heparin as anticoagulant at the scheduled time-points: 5 min, 15 min, 30 min, 1 h, 1.5 h, 2 h, 4 h, and 6 h. An LC-MS/MS bioanalytical method was used for the simultaneous quantification of sarpogrelate and M1 in plasma samples. […] Formation of M1 metabolite of sarpogrelate was rapid as the highest M1 concentrations were measured at the first sampling time points.

2D6 = 2D6 (Homo sapiens (Human), UniProt P10635); details: in vivo; cited from earlier work
2D6, sequence (P10635 whole entry): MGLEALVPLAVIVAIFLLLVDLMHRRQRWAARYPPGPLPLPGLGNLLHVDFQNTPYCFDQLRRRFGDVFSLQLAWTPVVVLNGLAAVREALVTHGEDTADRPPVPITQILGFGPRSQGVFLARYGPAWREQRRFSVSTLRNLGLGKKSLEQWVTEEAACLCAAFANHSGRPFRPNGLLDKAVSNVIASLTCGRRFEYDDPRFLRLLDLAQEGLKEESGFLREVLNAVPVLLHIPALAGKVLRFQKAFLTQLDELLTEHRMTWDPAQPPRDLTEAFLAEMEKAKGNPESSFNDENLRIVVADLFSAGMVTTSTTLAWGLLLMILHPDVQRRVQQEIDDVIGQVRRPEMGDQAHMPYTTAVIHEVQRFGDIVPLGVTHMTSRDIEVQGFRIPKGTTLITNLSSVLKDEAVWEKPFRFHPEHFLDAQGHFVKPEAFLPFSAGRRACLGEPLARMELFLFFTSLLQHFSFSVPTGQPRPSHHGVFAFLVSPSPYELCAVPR

[11] = system: immobility induced by tail suspension; assay: Tail suspension test in mice; assay type: in vivo, mouse; details: ritanserin with effective dose of memantine 10 mg/kg
Protocol: Tail suspension is one of the classical tests used to study antidepressant drugs and was also applied to evaluate antidepressant-like effects of NMDA receptor channel blockers (Kos T et al., Effect of 5-HT3 receptor antagonist MDL 72222 on behaviors induced by ketamine in rats and mice. European Neuropsychopharmacology (2006) 16:297-310). Mice were transferred from the housing room to the testing area in their home cages and allowed to adapt to the new environment for at least 1 h before drug treatment. Immobility was induced by tail suspension whereby mice were attached individually on a paper adhesive tape, 65 cm above the table top. The tape was placed approximately 1 cm from the tip of the tail. Animals were suspended for 6 min and the duration of immobility was recorded. Mice were considered immobile only when they were completely motionless. […]

T1 sequence (P10635 whole entry): as above

Q: Which “CYP2D6-mediated dextromethorphan O-demethylation” value (CYP2D6 [1]) does the source give for `CN(C)CCO[C@]1(c2ccccc2)C[C@H]2CC[C@]1(C)C2(C)C` [Compound 829, N,N-dimethyl-2-[[(1R,3S,4R)-4,7,7-trimethyl-3-phenyl-3-bicyclo[2.2.1]heptanyl]oxy]ethanamine] here?
A: observed to inhibit

Q: And the “t(max)” value ([2]; po)?
A: 1.0 h

Q: What about the “AUC (0.96) for H-3 relative to C-14 (times higher)” value [2] of the same molecule?
A: 10-15 times

Q: What about the “concentrations in the hypophysis relative to plasma and brain tissues” value [2] of the same molecule?
A: at least two times higher

Q: And the “entry into brain tissues” value [2]?
A: intact molecules entered brain tissues from the circulation

Q: What about the “ratio of AUC of H-3-labelled compound over C-14” value [2] of the same molecule?
A: 50-60

Q: And the “time of peak characteristic of enterohepatic cycle” value [2]?
A: 12 h

Q: And the “time of peak concentrations after the final treatment” value [2]?
A: 0.5 h

Q: With `COc1cccc(CCc2ccccc2OCC(CN(C)C)OC(=O)CCC(=O)O)c1` (racemic) [Compound 50, 4-((1-(dimethylamino)-3-(2-(3-methoxyphenethyl)phenoxy)propan-2-yl)oxy)-4-oxobutanoic acid] as the molecule, how does the “activity of sham-operated rats” value ([3]; doses with anti-hyperactivity effects) read?
A: do not affect activity of sham-operated rats

Q: And the “time in ambulations of bulbectomized rats” value ([3]; sarpogrelate 3 or 10 mg/kg i.p., first 15 min of the test)?
A: spent less time in ambulations

Q: What about the “frequency of DOI-induced head shakes” value (DOI-induced head shakes) of the same molecule?
A: reduced

Q: And the “ANOVA interaction between dose of sarpogrelate and dose of dextromethorphan” value ([4]; PCP 5 mg/kg s.c., 60-120 min, listed as sarpogrelate racemate)?
A: significant interaction

Q: And the “activity in PCP-treated rats” value ([4]; given in the absence of dextromethorphan)?
A: neither sarpogrelate racemate nor sarpogrelate enantiomers reduced activity

Q: What about the “motor hyperactivity in PCP-treated rats” value ([4]; in the presence of dextromethorphan, racemate 3 mg/kg, (−) sarpogrelate 1 or 3 mg/kg i.p., PCP 5 mg/kg s.c., 60-120 min) of the same molecule?
A: inhibited motor hyperactivity in PCP-treated rats

Q: And the “affinity for 5-HT2A receptors” value (5-HT2A receptors [5])?
A: the same affinity as ritanserin

Q: What about the IC50 (CYP2D6 [6]) of the same molecule?
A: 1200 nM

Q: And the “inhibition type (Dixon plots)” value (CYP2D6 [7])?
A: fit well to all competitive inhibition types

Q: And the Ki (5-HT2A receptors [8]; Ki calculated using the Cheng Prusoff equation)?
A: 5.01 nM

Q: And the IC50 (5-HT2A receptors [8]; inhibition of [3H]ketanserin binding, HEK-293 cells expressing human recombinant 5HT2A receptor)?
A: 9.6 nM

Q: And the “effect of dextromethorphan on blood glucose level” value [9]?
A: reversed

Q: What about the half-life [10] of the same molecule?
A: 1.21 ± 0.159 h

Q: And the “classification as 2D6 inhibitor” value (2D6)?
A: weak 2D6 inhibitor

Q: What about the “increase in the substrate AUC” value (2D6) of the same molecule?
A: less than 2 fold

Q: For `Cc1nc2sccn2c(=O)c1CCN1CCC(=C(c2ccc(F)cc2)c2ccc(F)cc2)CC1` [ritanserin], which “antidepressant-like effects of memantine (immobility time)” value [11] is on record?
A: reverse antidepressant-like effects of an effective dose of memantine
